Data reported in BindingDB's records for PubMed 2078271 (Sorbonne University, 1990).

Target: T1, 5-hydroxytryptamine receptor 1A (Homo sapiens, UniProt P08908)
T1 sequence (P08908 whole entry): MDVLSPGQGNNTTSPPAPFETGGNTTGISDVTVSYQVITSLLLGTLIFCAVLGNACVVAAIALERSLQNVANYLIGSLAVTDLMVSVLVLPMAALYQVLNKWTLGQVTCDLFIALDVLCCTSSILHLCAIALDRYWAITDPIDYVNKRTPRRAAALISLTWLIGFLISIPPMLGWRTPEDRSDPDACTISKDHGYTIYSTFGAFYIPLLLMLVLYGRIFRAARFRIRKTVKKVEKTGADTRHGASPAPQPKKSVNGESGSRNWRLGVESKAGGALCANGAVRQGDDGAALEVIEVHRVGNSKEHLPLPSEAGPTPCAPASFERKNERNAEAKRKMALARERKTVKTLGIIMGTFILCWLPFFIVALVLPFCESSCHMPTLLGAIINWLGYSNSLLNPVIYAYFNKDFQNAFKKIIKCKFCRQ

SMILES | Ki [nM]
COc1ccccc1N1CCN(CCN(C(=O)c2ccc(I)cc2)c2ccccn2)CC1 | 0.32
CC(C)(C)NCC(O)COc1ccccc1C1CCCC1 (single isomer, unassigned; (-)) [NSC_37464] | 8
CC(C)(C)NCC(O)COc1cccc2c1SCCC2 (single isomer, unassigned; (-)) [TERTATOLOL(-)] | 10
O=C1c2ccccc2S(=O)(=O)N1CCCCN1CCN(c2ncccn2)CC1 [1,1-Dioxo-2-[4-(4-pyrimidin-2-yl-piperazin-1-yl)-butyl]-1,2-dihydro-1lambda*6*-benzo[d]isothiazol-3-one] | 10
COc1c(O)c(O)cc2c1CC(N)CC2 (stereo not drawn) [5-OME-3-ADTN] | 1
FC(F)(F)c1cccc(C2=CCN(CCc3ccc4ccccc4c3)CC2)c1 [CAS_90494-79-4] | 2
Clc1cnn(CCCCN2CCN(c3ncccn3)CC2)c1 [CAS_132449-46-8] | 50
COC(=O)c1cc2c(N3CCN(CCCCN4C(=O)c5ccccc5S4(=O)=O)CC3)cccc2[nH]1 [CAS_141533-35-9] | 0.7
O=C(NCCN1CCN(c2cccc3c2OCC(CO)O3)CC1)c1ccc(F)cc1 (stereo not drawn) [FLESINOXAN] | 3
CCCN(CCC)CCc1c[nH]c2ccc(C(N)=O)cc12 [NN-DIPROP-5-CT] | 0.2
CCCN(CCCCN1C(=O)CC2(CCCC2)CC1=O)C1COc2cccc(OC)c2C1 (stereo not drawn) [NSC_121851] | 0.2
COc1ccccc1N1CCN(CCCNc2c(C)c(=O)n(C)c(=O)n2C)CC1 [Urapidil-5-methyl] | 0.35
COc1ccccc1N1CCN(C[C@@H](C(=O)NC(C)(C)C)c2ccccc2)CC1 [WAY 100135] | 20
